Assay results published in patent publication US8685977B2, “Chemical compounds” (Pfizer Limited, priority 2010, dated 2014).

What follows are compounds tested against T1, Nav1.7 (or SCN9A) channel (Homo sapiens, UniProt Q15858) (assay: Nav1.7 PatchXpress 7000 automated electrophysiology assay (HEK cells stably expressing hSCN9A)). Details: voltage-clamped at V1/2 of inactivation, read-out: Nav1.7 EIC50.
T1 construct: expressed in transfected cells
Format: cell-based
Experimental: The ability of the compounds of formula (I) to block the Nav1.7 (or SCN9A) channel was measured using the assays described below.
Human Embryonic Kidney (HEK) cells were transfected with an hSCN9A construct using lipofectamine reagent (Invitrogen), using standard techniques. Cells stably expressing the hSCN9A constructs were identified by their resistance to G-418 (400 μg/ml). Clones were screened for expression using the whole-cell voltage-clamp technique.
HEK cells stably transfected with hSCN9A were maintained in DMEM medium supplemented with 10% heat-inactivated fetal bovine serum and 400 μg/ml G-418 in an incubator at 37° C. with a humidified atmosphere of 10% CO2. For HTS, cells were harvested from flasks by trypsinization and replated in an appropriate multi-well plate (typically 96 or 384 wells/plate) such that confluence would be achieved within 24 hours of plating. For electrophysiological studies, cells were removed from the culture flask by brief trypsinization and re-plated at low density onto glass cover slips. Cells were typically used for electrophysiological experiments within 24 to 72 hours after plating.
Cover slips containing HEK cells expressing hSCN9A were placed in a bath on the stage of an inverted microscope and perfused (approximately 1 ml/minutes) with extracellular solution of the following composition: 138 mM NaCl, 2 mM CaCl2, 5.4 mM KCl, 1 mM MgCl2, 10 mM glucose, and 10 mM HEPES, pH 7.4, with NaOH. […] The osmolarity of the extracellular and intracellular solutions was 300 mOsm/kg and 295 mOsm/kg, respectively. All recordings were made at room temperature (22-24° C.) using AXOPATCH 200B amplifiers and PCLAMP software (Axon Instruments, Burlingame, Calif.).
HEK cells stably transfected with hSCN9A were viewed under Hoffman contrast optics and placed in front of an array of flow pipes emitting either control or compound-containing extracellular solutions. All compounds were dissolved in dimethyl sulfoxide to make 10 mM stock solutions, which were then diluted into extracellular solution to attain the final concentrations desired. […] The voltage-dependence of inactivation was determined by applying a series of depolarizing prepulses (8 sec long in 10 mV increments) from a negative holding potential. The voltage was then immediately stepped to 0 mV to assess the magnitude of the sodium current. Currents elicited at 0 mV were plotted as a function of prepulse potential to allow estimation of the voltage at which 50% of the channels were inactivated (midpoint of inactivation or V1/2). Compounds were tested for their ability to inhibit hSCN9A sodium channels by activating the channel with a 20 msec voltage step to 0 mV following an 8 second conditioning prepulse to the empirically determined V1/2. Compound effect (% inhibition) was determined by difference in current amplitude before and after application of test compounds. For ease of comparison, “estimated IC-50” (EIC50) values were calculated from single point electrophysiology data by the following equation, (tested concentration, uM)×(100-% inhibition/% inhibition). Inhibition values <20% and >80% were excluded from the calculation.
Electrophysiological assays were conducted with PatchXpress 7000 hardware and associated software (Molecular Devices Corp). All assay buffers and solutions were identical to those used in conventional whole-cell voltage clamp experiments described above. hSCN9A cells were grown as above to 50%-80% confluency and harvested by trypsinization. Trypsinized cells were washed and resuspended in extracellular buffer at a concentration of 1×10^6 cells/ml. The onboard liquid handling facility of the PatchXpress was used for dispensing cells and application of test compounds. Determination of the voltage midpoint of inactivation was as described for conventional whole-cell recordings. Cells were then voltage-clamped to the empirically determined V1/2 and current was activated by a 20 msec voltage step to 0 mV. […]

T1 sequence (Q15858 whole entry): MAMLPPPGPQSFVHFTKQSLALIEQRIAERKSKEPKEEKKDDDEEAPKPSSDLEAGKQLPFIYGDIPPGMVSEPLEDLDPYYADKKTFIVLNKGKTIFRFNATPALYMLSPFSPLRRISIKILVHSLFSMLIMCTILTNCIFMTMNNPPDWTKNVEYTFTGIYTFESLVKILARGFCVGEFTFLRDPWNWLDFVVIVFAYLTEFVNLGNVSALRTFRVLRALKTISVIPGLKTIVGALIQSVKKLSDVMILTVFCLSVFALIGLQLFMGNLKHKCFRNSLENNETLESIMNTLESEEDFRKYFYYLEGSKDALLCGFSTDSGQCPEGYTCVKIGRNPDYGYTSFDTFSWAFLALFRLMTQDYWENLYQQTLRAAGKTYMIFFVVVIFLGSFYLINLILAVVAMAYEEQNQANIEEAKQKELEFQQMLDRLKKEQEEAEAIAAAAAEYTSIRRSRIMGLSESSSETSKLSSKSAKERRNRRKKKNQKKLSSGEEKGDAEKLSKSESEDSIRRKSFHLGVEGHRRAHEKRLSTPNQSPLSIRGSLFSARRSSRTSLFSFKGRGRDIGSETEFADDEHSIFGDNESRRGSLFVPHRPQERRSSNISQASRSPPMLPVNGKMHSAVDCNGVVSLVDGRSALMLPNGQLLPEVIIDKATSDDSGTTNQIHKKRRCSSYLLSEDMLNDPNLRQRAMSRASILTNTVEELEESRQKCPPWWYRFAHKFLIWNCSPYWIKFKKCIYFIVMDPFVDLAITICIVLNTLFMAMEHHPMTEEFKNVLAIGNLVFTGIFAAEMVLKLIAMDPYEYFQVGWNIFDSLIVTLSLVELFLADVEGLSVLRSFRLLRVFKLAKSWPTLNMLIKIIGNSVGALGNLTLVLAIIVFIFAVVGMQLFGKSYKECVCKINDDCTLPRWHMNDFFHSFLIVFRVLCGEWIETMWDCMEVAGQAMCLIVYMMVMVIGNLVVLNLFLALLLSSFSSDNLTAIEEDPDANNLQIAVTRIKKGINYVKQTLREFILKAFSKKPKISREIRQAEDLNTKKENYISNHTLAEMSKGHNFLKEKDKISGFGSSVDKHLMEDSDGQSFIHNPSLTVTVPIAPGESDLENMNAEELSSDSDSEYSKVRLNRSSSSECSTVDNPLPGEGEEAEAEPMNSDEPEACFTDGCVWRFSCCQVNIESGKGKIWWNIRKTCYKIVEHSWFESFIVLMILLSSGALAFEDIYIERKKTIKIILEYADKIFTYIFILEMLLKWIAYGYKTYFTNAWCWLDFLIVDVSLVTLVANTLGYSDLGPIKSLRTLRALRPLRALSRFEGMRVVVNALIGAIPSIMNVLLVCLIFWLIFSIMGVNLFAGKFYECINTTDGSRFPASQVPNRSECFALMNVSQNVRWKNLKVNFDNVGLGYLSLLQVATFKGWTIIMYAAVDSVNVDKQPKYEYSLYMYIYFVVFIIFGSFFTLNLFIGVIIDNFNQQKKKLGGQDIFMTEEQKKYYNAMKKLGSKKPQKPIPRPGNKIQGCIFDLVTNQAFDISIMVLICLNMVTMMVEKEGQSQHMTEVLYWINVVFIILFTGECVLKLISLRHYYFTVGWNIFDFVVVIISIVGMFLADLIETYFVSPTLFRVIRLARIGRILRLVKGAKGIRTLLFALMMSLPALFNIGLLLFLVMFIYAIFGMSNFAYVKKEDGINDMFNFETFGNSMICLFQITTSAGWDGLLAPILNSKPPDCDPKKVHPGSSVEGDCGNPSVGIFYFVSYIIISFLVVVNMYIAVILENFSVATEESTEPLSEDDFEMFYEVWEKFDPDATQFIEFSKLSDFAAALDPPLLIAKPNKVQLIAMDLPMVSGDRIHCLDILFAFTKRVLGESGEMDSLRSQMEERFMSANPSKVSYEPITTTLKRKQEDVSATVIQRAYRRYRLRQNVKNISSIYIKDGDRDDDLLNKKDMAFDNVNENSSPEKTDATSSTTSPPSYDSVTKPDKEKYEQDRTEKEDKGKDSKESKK

Structure (SMILES) | IC50
COc1cc(C#N)ccc1Oc1cc(F)c(C(=O)NS(C)(=O)=O)cc1F [Example 135, 4-(4-cyano-2-methoxyphenoxy)-2,5-difluoro-N-(methylsulfonyl)benzamide] | > 3 µM
COc1cc(Cl)ccc1Oc1ccc(C(=O)NS(C)(=O)=O)cc1F [Example 65, 4-(4-chloro-2-methoxyphenoxy)-3-fluoro-N-(methylsulfonyl)benzamide] | > 1 µM
COc1ccc(Oc2ccc(C(=O)NS(C)(=O)=O)cc2)cc1 [Example 186, 4-(4-methoxyphenoxy)-N-(methylsulfonyl)benzamide] | 34 µM
CC(C)c1ccc(Oc2ccc(C(=O)NS(C)(=O)=O)cc2)cc1 [Example 173, 4-(4-isopropylphenoxy)-N-(methylsulfonyl)benzamide] | 1.2 µM
CS(=O)(=O)NC(=O)c1ccc(Oc2ccc(OCc3ccccc3)cc2)cc1 [Example 178, 4-[4-(benzyloxy)phenoxy]-N-(methylsulfonyl)benzamide] | 1.3 µM
Cc1cc(C#N)cc(C)c1Oc1cc(F)c(C(=O)NS(C)(=O)=O)cc1F [Example 132, 4-(4-cyano-2,6-dimethylphenoxy)-2,5-difluoro-N-(methylsulfonyl)benzamide] | > 3 µM
CS(=O)(=O)NC(=O)c1ccc(Oc2ccc(F)cc2)cc1 [Example 309, 4-(4-fluorophenoxy)-N-(methylsulfonyl)benzamide] | 18 µM
COc1ccc(C)cc1Oc1cc(F)c(C(=O)NS(C)(=O)=O)cc1F [Example 86, 2,5-difluoro-4-(2-methoxy-5-methylphenoxy)-N-(methylsulfonyl)benzamide] | > 1 µM
Cc1ccccc1Oc1ccc(C(=O)NS(C)(=O)=O)cc1Cl [Example 256, 3-chloro-4-(2-methylphenoxy)-N-(methylsulfonyl)benzamide] | 2.8 µM
COc1cc(Cl)c(Cl)cc1Oc1cc(F)c(C(=O)NS(C)(=O)=O)cc1F [Example 70, 4-(4,5-dichloro-2-methoxyphenoxy)-2,5-difluoro-N-(methylsulfonyl)benzamide] | 2.8 µM
CS(=O)(=O)NC(=O)c1cc(Cl)c(Oc2ccc(Cl)cc2OC(F)F)cc1F [Example 11, 5-chloro-4-[4-chloro-2-(difluoromethoxy)phenoxy]-2-fluoro-N-(methylsulfonyl)benzamide] | 0.43 µM
CC(C)c1cccc(Oc2cc(F)c(C(=O)NS(C)(=O)=O)cc2F)c1 [Example 158, 2,5-difluoro-4-(3-isopropylphenoxy)-N-(methylsulfonyl)benzamide] | 0.84 µM
O=C(NS(=O)(=O)C1CC1)c1ccc(Oc2ccc(Cl)cc2)cc1 [Example 26, 4-(4-chlorophenoxy)-N-(cyclopropylsulfonyl)benzamide] | 0.43 µM
COc1ccc(OC(F)(F)F)cc1Oc1cc(F)c(C(=O)NS(C)(=O)=O)cc1F [Example 314, 2,5-difluoro-4-[2-methoxy-5-(trifluoromethoxy)phenoxy]-N-(methylsulfonyl)benzamide] | 1.1 µM
CS(=O)(=O)NC(=O)c1cc(F)c(Oc2cccc(F)c2)cc1F [Example 142, 2,5-difluoro-4-(3-fluorophenoxy)-N-(methylsulfonyl)benzamide] | > 3 µM
COc1ccc(Cl)c(Oc2cc(F)c(C(=O)NS(C)(=O)=O)cc2F)c1 [Example 109, 4-(2-chloro-5-methoxyphenoxy)-2,5-difluoro-N-(methylsulfonyl)benzamide] | > 1 µM
COc1cc(Oc2ccc(F)c(Cl)c2)ccc1C(=O)NS(C)(=O)=O [Example 233, 4-(3-chloro-4-fluorophenoxy)-2-methoxy-N-(methylsulfonyl)benzamide] | 8.2 µM
COc1cc(Oc2ccc(F)c(C)c2)ccc1C(=O)NS(C)(=O)=O [Example 216, 4-(4-fluoro-3-methylphenoxy)-2-methoxy-N-(methylsulfonyl)benzamide] | 11 µM

Structure (SMILES) | IC50
CCc1cc(F)ccc1Oc1cc(F)c(C(=O)NS(C)(=O)=O)cc1Cl [Example 18, 5-chloro-4-(2-ethyl-4-fluorophenoxy)-2-fluoro-N-(methylsulfonyl)benzamide] | 0.37 µM
CS(=O)(=O)NC(=O)c1ccc(Oc2cccc(-c3ccccc3)c2)c(C#N)c1 [Example 272, 4-(biphenyl-3-yloxy)-3-cyano-N-(methylsulfonyl)benzamide] | 0.71 µM
CS(=O)(=O)NC(=O)c1cc(Cl)c(Oc2ccc(Cl)c(C(F)(F)F)c2)cc1F [Example 16, 5-chloro-4-[4-chloro-3-(trifluoromethyl)phenoxy]-2-fluoro-N-(methylsulfonyl)benzamide] | 0.04 µM
COc1ccc(C#N)cc1Oc1cc(F)c(C(=O)NS(C)(=O)=O)cc1F [Example 88, 4-(5-cyano-2-methoxyphenoxy)-2,5-difluoro-N-(methylsulfonyl)benzamide] | > 3 µM
CS(=O)(=O)NC(=O)c1ccc(Oc2ccc(Cl)c(Cl)c2)c(C#N)c1 [Example 29, 3-cyano-4-(3,4-dichlorophenoxy)-N-(methylsulfonyl)benzamide] | 0.95 µM
COc1cc(C)cc(Oc2ccc(C(=O)NS(C)(=O)=O)cc2)c1 [Example 204, 4-(3-methoxy-5-methylphenoxy)-N-(methylsulfonyl)benzamide] | 21 µM
CS(=O)(=O)NC(=O)c1cc(F)c(Oc2ccc(OC(F)(F)F)cc2)cc1F [Example 100, 2,5-difluoro-N-(methylsulfonyl)-4-[4-(trifluoromethoxy)phenoxy]benzamide] | 1.1 µM
Cc1ccc(Oc2ccc(C(=O)NS(C)(=O)=O)cc2)c(Cl)c1 [Example 203, 4-(2-chloro-4-methylphenoxy)-N-(methylsulfonyl)benzamide] | 25 µM
CS(=O)(=O)NC(=O)c1ccc(Oc2ccc(Cl)cc2)c(Cl)c1 [Example 214, 3-chloro-4-(4-chlorophenoxy)-N-(methylsulfonyl)benzamide] | 0.22 µM
CCS(=O)(=O)NC(=O)c1ccc(Oc2ccc(Cl)cc2)cc1 [Example 23, 4-(4-chlorophenoxy)-N-(ethylsulfonyl)benzamide] | 3.4 µM
Cc1ccc(F)cc1Oc1cc(F)c(C(=O)NS(C)(=O)=O)cc1F [Example 115, 2,5-difluoro-4-(5-fluoro-2-methylphenoxy)-N-(methylsulfonyl)benzamide] | > 3 µM
CS(=O)(=O)NC(=O)c1cc(Cl)c(Oc2ccc(C(F)(F)F)c(Cl)c2)cc1F [Example 9, 5-chloro-4-(3-chloro-4-(trifluoromethyl)phenoxy)-2-fluoro-N-(methylsulfonyl)benzamide] | 0.047 µM
CS(=O)(=O)NC(=O)c1ccc(Oc2ccc(Cl)cc2)c(F)c1 [Example 229, 4-(4-chlorophenoxy)-3-fluoro-N-(methylsulfonyl)benzamide] | 1.2 µM
COc1cc(C(F)(F)F)ccc1Oc1cc(F)c(C(=O)NS(C)(=O)=O)cc1F [Example 74, 2,5-difluoro-4-(2-methoxy-4-(trifluoromethyl)phenoxy)-N-(methylsulfonyl)benzamide] | > 1 µM
CS(=O)(=O)NC(=O)c1cc(F)c(Oc2c(F)cc(F)cc2F)cc1F [Example 94, 2,5-difluoro-N-(methylsulfonyl)-4-(2,4,6-trifluorophenoxy)benzamide] | > 3 µM
COc1cc(Cl)ccc1Oc1ccc(C(=O)NS(C)(=O)=O)c(OC)c1 [Example 40, 4-(4-chloro-2-methoxyphenoxy)-2-methoxy-N-(methylsulfonyl)benzamide] | 25 µM
CS(=O)(=O)NC(=O)c1cc(F)c(Oc2ccc(OC(F)F)c(Cl)c2)cc1F [Example 13, 4-[3-chloro-4-(difluoromethoxy)phenoxy]-2,5-difluoro-N-(methylsulfonyl)benzamide] | 2.5 µM
CS(=O)(=O)NC(=O)c1cc(F)c(Oc2ccc(F)cc2C2CC2)cc1F [Example 126, 4-(2-cyclopropyl-4-fluorophenoxy)-2,5-difluoro-N-(methylsulfonyl)benzamide] | > 1 µM
